Results reported in patent US20200405697A1, “Antitumor Agent” (Taiho Pharmaceutical Co., Ltd, priority 2017, published 2020).

Target: T1, human RNR (histidine tagged human M1 and human M2 proteins) (Homo sapiens, UniProt P23921)
T1 construct: made in house; host or cells: Escherichia coli
T1 sequence (P23921 1-792): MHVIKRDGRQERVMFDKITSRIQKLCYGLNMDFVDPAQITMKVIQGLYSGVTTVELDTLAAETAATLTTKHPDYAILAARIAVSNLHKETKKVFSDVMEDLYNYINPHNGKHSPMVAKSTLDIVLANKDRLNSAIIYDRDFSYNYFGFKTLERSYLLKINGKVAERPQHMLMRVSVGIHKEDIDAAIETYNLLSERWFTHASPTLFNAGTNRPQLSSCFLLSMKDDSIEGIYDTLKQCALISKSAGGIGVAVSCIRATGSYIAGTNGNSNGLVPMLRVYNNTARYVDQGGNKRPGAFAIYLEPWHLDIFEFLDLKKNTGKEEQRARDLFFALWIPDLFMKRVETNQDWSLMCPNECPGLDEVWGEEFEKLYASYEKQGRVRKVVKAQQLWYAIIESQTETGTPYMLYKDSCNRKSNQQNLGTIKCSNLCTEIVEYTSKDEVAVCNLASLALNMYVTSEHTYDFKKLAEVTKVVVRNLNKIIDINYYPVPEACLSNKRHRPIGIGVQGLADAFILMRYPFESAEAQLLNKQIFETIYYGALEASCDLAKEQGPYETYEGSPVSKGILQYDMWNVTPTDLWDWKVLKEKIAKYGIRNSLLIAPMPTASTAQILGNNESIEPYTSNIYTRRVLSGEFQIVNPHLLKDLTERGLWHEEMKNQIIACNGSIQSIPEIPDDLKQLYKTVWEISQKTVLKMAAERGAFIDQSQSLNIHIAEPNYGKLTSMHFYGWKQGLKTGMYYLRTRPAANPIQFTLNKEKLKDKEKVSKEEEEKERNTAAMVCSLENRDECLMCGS
Experiment: Human RNR inhibition effect (dCDP formation from CDP)
Format: biochemical
Conditions: 10 μM CDP, 37° C. for 30 minutes, read-out: RNR inhibitory activity IC50
Method in brief: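 His-tagged human M1 (isoform 1) and N-terminal 59-aa-truncated M2 (isoform 2), E. coli-expressed, Ni-purified, preincubated 20 min with compound (1% DMSO). Reaction with 10 μM CDP, 2 mM ATP, 0.24 mM NADPH, 6 mM DTT, 4 mM Mg acetate, 100 mM KCl, 50 mM HEPES pH 7.2, 30 min at 37° C. dCDP formed quantified by reverse-phase HPLC after heat stop.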

Cc1ccc(F)c([C@@H](C)[C@H](NS(=O)(=O)c2cc3c(cc2C(=O)O)OCCO3)c2n[nH]c(=O)o2)c1C [Example 223, 7-(N-((1S,2R)-2-(6-fluoro-2,3-dimethylphenyl)-1-(5-oxo-4,5-dihydro-1,3,4-oxadiazol-2-yl)propyl)sulfamoyl)-2,3-dihydrobenzo[b][1,4]dioxin-6-Carboxylic Acid]
IC50: 790 nM

Cc1ccc(F)c([C@@H](C)[C@H](NS(=O)(=O)c2ccc3[nH]nnc3c2)c2n[nH]c(=O)o2)c1C [Example 181, N-((1S,2R)-2-(6-fluoro-2,3-dimethylphenyl)-1-(5-oxo-4,5-dihydro-1,3,4-oxadiazol-2-yl)propyl)-1H-benzo[d][1,2,3]triazole-5-sulfonamide]
IC50: 660 nM

COC(=O)c1c(F)ccc(S(=O)(=O)N[C@H](c2n[nH]c(=O)o2)[C@H](C)c2c(F)ccc(C)c2C)c1F [Example 178, methyl 2,6-difluoro-3-(N-((1S,2R)-2-(6-fluoro-2,3-dimethylphenyl)-1-(5-oxo-4,5-dihydro-1,3,4-oxadiazol-2-yl)propyl)sulfamoyl)benzoate]
IC50: 170 nM

COc1cc(C(N)=O)ccc1S(=O)(=O)N[C@H](c1n[nH]c(=O)o1)[C@H](C)c1c(F)ccc(C)c1C [Example 346, 4-(N-((1S,2R)-(6-fluoro-2,3-dimethylphenyl)-1-(5-oxo-4,5-dihydro-1,3,4-oxadiazol-2 yl)propyl)sulfamoyl)-3-methoxybenzamide]
IC50: 420 nM

Cc1ccc(F)c([C@@H](C)[C@H](NS(=O)(=O)c2ccc(Cl)cc2N)c2n[nH]c(=O)o2)c1C [Example 271, 2-amino-4-chloro-N-((1S,2R)-2-(6-fluoro-2,3-dimethylphenyl)-1-(5-oxo-4,5-dihydro-1,3,4-oxadiazol-2-yl)propyl)benzenesulfonamide]
IC50: 230 nM

COC(=O)c1cc(Br)cnc1S(=O)(=O)N[C@H](c1n[nH]c(=O)o1)[C@H](C)c1c(F)ccc(C)c1C [Example 119, methyl 5-bromo-2-(N-((1S,2R)-2-(6-fluoro-2,3-dimethylphenyl)-1-(5-oxo-4,5-dihydro-1,3,4-oxadiazol-2-yl)propyl)sulfamoyl)nicotinate]
IC50: 450 nM

Cc1ccc(F)c([C@@H](C)[C@H](NS(=O)(=O)c2ccc(F)c3c2OCCC3=O)c2n[nH]c(=O)o2)c1C [Example 159, 5-fluoro-N-((1S,2R)-2-(6-fluoro-2,3-dimethylphenyl)-1-(5-oxo-4,5-dihydro-1,3,4-oxadiazol-2-yl)propyl)-4-oxochroman-8-sulfonamide]
IC50: 160 nM

Cc1ccc(F)c([C@@H](C)[C@H](NS(=O)(=O)c2ccc(Cl)c(-c3cnn(C)c3)c2)c2n[nH]c(=O)o2)c1C [Example 325, 4-chloro-N-((1S,2R)-2-(6-fluoro-2,3-dimethylphenyl)-1-(5-oxo-4,5-dihydro-1,3,4-oxadiazol-2-yl)propyl)-3-(1-methyl-1H-pyrazol-4-yl)benzenesulfonamide]
IC50: 220 nM

Cc1ccc(F)c([C@@H](C)[C@H](NS(=O)(=O)c2cc(C(=O)N3CCOCC3)ccc2C(N)=O)c2n[nH]c(=O)o2)c1C [Example 36, 2-(N-((1S,2R)-2-(6-fluoro-2,3-dimethylphenyl)-1-(5-oxo-4,5-dihydro-1,3,4-oxadiazol-2-yl)propyl)sulfamoyl)-4-(morpholine-4-carbonyl)benzamide]
IC50: 110 nM

COc1ncc(-c2ccc(F)c([C@@H](C)[C@H](NS(=O)(=O)c3ccc(Cl)cc3OC)c3n[nH]c(=O)o3)c2C)cn1 [Example 319, 4-chloro-N-((1S,2R)-2-(6-fluoro-3-(2-methoxypyrimidin-5-yl)-2-methylphenyl)-1-(5-oxo-4,5-dihydro-1,3,4-oxadiazol-2-yl)propyl)-2-methoxybenzenesulfonamide]
IC50: 280 nM

C[C@H](c1c(F)ccc2ccccc12)[C@H](NS(=O)(=O)c1ccc(Cl)cc1C(N)=O)c1n[nH]c(=O)o1 [Example 6, 5-chloro-2-(N-((1S,2R)-2-(2-fluoronaphthalen-1-yl)-1-(5-oxo-4,5-dihydro-1,3,4-oxadiazol-2-yl)propyl)sulfamoyl)benzamide]
IC50: 110 nM

COc1cc(C#N)ccc1S(=O)(=O)N[C@H](c1n[nH]c(=O)o1)[C@H](C)c1c(F)ccc(C)c1C [Example 342, 4-cyano-N-((1S,2R)-(6-fluoro-2,3-dimethylphenyl)-1-(5-oxo-4,5-dihydro-1,3,4-oxadiazol-2-yl)propyl)-2-methoxybenzenesulfonamide]
IC50: 90 nM

Cc1cccc([C@@H](C)[C@H](NS(=O)(=O)c2ccc(Cl)c3c2OCC=C3)c2n[nH]c(=O)o2)c1C [Example 295, 5-chloro-N-((1S,2R)-2-(2,3-dimethylphenyl)-1-(5-oxo-4,5-dihydro-1,3,4-oxadiazol-2-yl)propyl)-2H-chromene-8-sulfonamide]
IC50: 790 nM

Cc1ccc(F)c([C@@H](C)[C@H](NS(=O)(=O)c2ncc(Cl)cc2C(N)=O)c2n[nH]c(=O)o2)c1C [Example 245, 5-chloro-2-(N-((1S,2R)-2-(6-fluoro-2,3-dimethylphenyl)-1-(5-oxo-4,5-dihydro-1,3,4-oxadiazol-2-yl)propyl)sulfamoyl)nicotinamide]
IC50: 40 nM

C[C@H](c1cccc2c1-c1ccccc1C2)[C@H](NS(=O)(=O)c1ccc(Br)cn1)c1n[nH]c(=O)o1 [Example 50, N-((1S,2R)-2-(9H-fluoren-4-yl)-1-(5-oxo-4,5-dihydro-1,3,4-oxadiazol-2-yl)propyl)-5-bromopyridine-2-sulfonamide]
IC50: 850 nM

COc1cc(N)ccc1S(=O)(=O)N[C@H](c1n[nH]c(=O)o1)[C@H](C)c1c(F)ccc2ccccc12 [Example 265, 4-amino-N-((1S,2R)-2-(2-fluoronaphthalen-1-yl)-1-(5-oxo-4,5-dihydro-1,3,4-oxadiazol-2-yl)propyl)-2-methoxybenzenesulfonamide]
IC50: 260 nM

Cc1ccc(F)c([C@@H](C)[C@H](NS(=O)(=O)c2c(Cl)cc(Cl)cc2C(N)=O)c2n[nH]c(=O)o2)c1C [Example 256, 3,5-dichloro-2-(N-((1S,2R)-2-(6-fluoro-2,3-dimethylphenyl)-1-(5-oxo-4,5-dihydro-1,3,4-oxadiazol-2-yl)propyl)sulfamoyl)benzamide]
IC50: 420 nM

Cc1ccc(F)c([C@@H](C)[C@H](NS(=O)(=O)c2ccc3c(c2)C(C)(O)CCO3)c2n[nH]c(=O)o2)c1C (stereo partly drawn) [Example 195, N-((1S,2R)-2-(6-fluoro-2,3-dimethylphenyl)-1-(5-oxo-4,5-dihydro-1,3,4-oxadiazol-2-yl)propyl)-4-hydroxy-4-methylchroman-6-sulfonamide]
IC50: 180 nM

COc1c(S(=O)(=O)N[C@H](c2n[nH]c(=O)o2)[C@H](C)c2c(F)ccc(C)c2C)ccc(Cl)c1C(C)O (single isomer, unassigned) [Example 208A]
IC50: 100 nM

Cc1c(Cl)ccc(F)c1[C@@H](C)[C@H](NS(=O)(=O)c1ncc(Br)cc1C(N)=O)c1n[nH]c(=O)o1 [Example 254, 5-bromo-2-(N-((1S,2R)-2-(3-chloro-6-fluoro-2-methylphenyl)-1-(5-oxo-4,5-dihydro-1,3,4-oxadiazol-2-yl)propyl)sulfamoyl)nicotinamide]
IC50: 70 nM

COc1c(S(=O)(=O)N[C@H](c2n[nH]c(=O)o2)[C@H](C)c2c(F)ccc(C)c2C)ncc(Cl)c1C(C)O (stereo partly drawn) [Example 216, 5-chloro-N-((1S,2R)-2-(6-fluoro-2,3-dimethylphenyl)-1-(5-oxo-4,5-dihydro-1,3,4-oxadiazol-2-yl)propyl)-4-(1-hydroxyethyl)-3-methoxypyridine-2-sulfonamide]
IC50: 200 nM

COc1nc(Cl)ccc1S(=O)(=O)N[C@H](c1n[nH]c(=O)o1)[C@H](C)c1c(F)ccc(C)c1C [Example 148, 6-chloro-N-((1S,2R)-2-(6-fluoro-2,3-dimethylphenyl)-1-(5-oxo-4,5-dihydro-1,3,4-oxadiazol-2-yl)propyl)-2-methoxypyridine-3-sulfonamide]
IC50: 100 nM

Cc1ccc(F)c([C@@H](C)[C@H](NS(=O)(=O)c2ccc(C(F)(F)F)c3c2OCCC3O)c2n[nH]c(=O)o2)c1C (single isomer, unassigned) [Example 244A]
IC50: 90 nM

Cc1ccc(F)c([C@@H](C)[C@H](NS(=O)(=O)c2ccc(Cl)c3c2C(O)CCC3)c2n[nH]c(=O)o2)c1C (stereo partly drawn) [Example 240, 4-chloro-N-((1S,2R)-2-(6-fluoro-2,3-dimethylphenyl)-1-(5-oxo-4,5-dihydro-1,3,4-oxadiazol-2-yl)propyl)-8-hydroxy-5,6,7,8-tetrahydronaphthalene-1-sulfonamide]
IC50: 910 nM

Cc1c(Cl)ccc(F)c1[C@@H](C)[C@H](NS(=O)(=O)c1ccc(Cl)c2c1OCCC2O)c1n[nH]c(=O)o1 (single isomer, unassigned) [Example 238A]
IC50: 110 nM
